Measured values from patent publication US20260374739A1, “SMALL MOLECULAR WEIGHT CHEMICAL COMPOUND TO ANTAGONIZE EPH-EPHRIN TETRAMERIZATION AND INHIBIT BIDIRECTIONAL SIGNALING” (THE BOARD OF REGENTS OF THE UNIVERSITY OF TEXAS SYSTEM, priority 2022, published 2026).
Entries after “also recorded” stand apart in the source; their conditions may differ.

Experiments:
[1] = system: DH neurons in the spinal cord; experiment: dorsal horn neuron activation (Tom+) after Zymosan; type: in vivo, mouse; conditions: PO
Description: In this example, an in-house method to count and quantify/analyze Tom+ neurons (see Example 23) in the dorsal horn (DH) of the spinal cord is used to track the effect of an inflammatory insult (subcutaneous injection of CFA into the left hind paw). As described above in Example 23, we initially dissected perfusion-fixed spinal cords and then cut in the transverse plane 50 μm thick serial sections throughout the entire length of the lumbar cord of each animal using a vibratome aiming to capture all sections. As serial sections are cut, they are placed into 10 section bins (500 μm spinal cord per bin) and a total of 12 bins are collected spanning 6 mm total spinal cord length. […] Focusing in on this “sweet spot” of 4 bins, the additional sections were mounted and analyzed (aiming for at least 12 sections from these 4 bins, 3 per bin) to increase total data to analyze.
In another example, 307 Axioscan imaged lumbar spinal cord sections from the “sweet spots” of eight+/+wild-type mice subjected to Zymosan pain model and oral dosing of either vehicle (n=3), 3511-I (2×HCl, n=3), or BQPB4 (3×HCl, n=2) were analyzed. […] There was also a trend towards lower overall Tom+ ratios in the 3511-I or BQPB4 treated mice, though the numbers of mice analyzed here were too low to reveal significance.

[2] = target: pre-formed EphB2-EphrinB2 tetramer (Mus musculus, UniProt P54763); experiment: Octet competition of pre-existing tetramers, mouse EphB2-EphrinB2; type: binding; conditions: 2, 10, 50 μM
Chain of pre-formed EphB2-EphrinB2 tetramer (P54763 19-543 limits assumed): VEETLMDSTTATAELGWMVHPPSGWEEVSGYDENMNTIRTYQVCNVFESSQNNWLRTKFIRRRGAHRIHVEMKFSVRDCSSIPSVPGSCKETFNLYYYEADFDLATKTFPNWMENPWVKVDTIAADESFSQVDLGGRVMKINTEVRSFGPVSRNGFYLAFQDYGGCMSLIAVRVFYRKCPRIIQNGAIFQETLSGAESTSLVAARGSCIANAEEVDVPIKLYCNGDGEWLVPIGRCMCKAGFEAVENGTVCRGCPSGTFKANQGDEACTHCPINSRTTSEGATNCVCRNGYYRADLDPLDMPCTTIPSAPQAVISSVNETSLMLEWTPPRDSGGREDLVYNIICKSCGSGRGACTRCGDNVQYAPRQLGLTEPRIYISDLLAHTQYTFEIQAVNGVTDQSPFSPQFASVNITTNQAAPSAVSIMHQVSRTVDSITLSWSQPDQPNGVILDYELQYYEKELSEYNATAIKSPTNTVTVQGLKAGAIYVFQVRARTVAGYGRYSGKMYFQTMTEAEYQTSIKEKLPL
Description: (§1) Biophysical studies were conducted to explore if A20 is able to disrupt pre-existing stable tetramers, focusing on interactions of immobilized human EphrinB2 binding to soluble human EphB1 and EphB2, and immobilized mouse EphB2 binding to mouse EphrinB2 (FIGS. 29A-29C). In these experiments, sensor-chip immobilized proteins were first exposed to 50 nM of their soluble target protein for an 800 sec association step and 1,000 sec dissociation step to generate pre-formed stable tetramers, which were then subjected to a 1,000 sec competition step that included either 0, 2, 10, or 50 μM concentrations of A20 salt compound. […] The ability of A20 to disrupt pre-existing tetramers was most pronounced for human EB2-EphB2 and cognate murine EphB2-EB2 experiments and indicated a gradual ongoing dose-dependent decline in tetramers throughout the 1,000 sec competition step (and beyond if allowed) and irrespective of whether the human EphrinB2 or murine EphB2 was the immobilized protein.

[3] = system: morphine withdrawal in mice; experiment: naloxone-precipitated morphine withdrawal behaviors; type: in vivo, mouse; conditions: 30 mg/kg IP, 4×12 hr
Description: Eight month old male EphB1^+/+ WT mice EphB1^−/− KO mice from the Henkemeyer mouse colony were injected intraperitoneally (IP) with increasing morphine doses in normal saline every 12 h for 4 consecutive days (day 1:20 mg/kg, day 2:40 mg/kg, day 3:60 mg/kg, day 4:80 mg/kg) and on the fifth day in the morning they were injected with a final 100 mg/kg morphine dose which was staggered by one mouse every 30 minutes. Exactly 3 h after the last morphine injection, each mouse was weighed, and withdrawal was precipitated using naloxone hydrochloride that was subcutaneously injected at 1 mg/kg. Withdrawal signs were then monitored by an examiner who was blinded to animal genotypes for 30 min after naloxone administration to identify the number of jumps, wet dog shakes, and diarrhea events observed in the 30 min period, and % change in weight from before naloxone administration to 30 min post withdrawal. For tremor and ptosis, the presence of tremor and/or a drooping upper eyelid is monitored at the beginning of each 5 min interval during the 30 min monitoring period.
WT CD1 mice was used in one experiment and WT C57BL/6 mice was used in the other. All mice were 4-5-month-old males. In both cases, 30 mg/kg A20 free base dissolved in 6% DMSO/94% sunflower seed oil was administered in 4×12 hr IP dosings to mice that were at an entering dose 6 of a 9×12 hr IP schedule of escalating morphine (2×20, 2×40, 2×60, 2×80, and 1×100 mg/kg). Naloxone was given exactly 3 hr after the last A20/morphine dose and withdrawal behaviors were monitored for 30 min. Both groups of mice were scored for jumping (FIG. 70A) and the C57BL/6 mice were additionally scored at 5 min intervals for diarrhea, tremor, and ptosis (FIG. 70B). […] In summary, A20 tetramerization inhibitor compounds serve to help reduce the adverse effects of opioid use and abuse, and could possibly be used to help wean people off of terribly addictive narcotic drugs.

EphB2-His-Fc = experiment: single-protein counter ELISA; conditions: 5 μM
Description: The 32 hits were then subjected to ELISA in which EphB1-Fc was first immobilized in 96 well Protein A plates, then soluble EB2-His was added with hit compound in triplicate, again at 5 μM. After 2 hr at RT to allow EB2-His binding to EphB1-Fc, wells were washed, incubated with nickel-activated horseradish peroxidase (HisProbe-HRP) to detect bound EB2-His protein, washed, and then incubated with ELISA Pico Chemiluminescent Substrate (both from Thermo-Fisher) before being read in a luminometer. A single-protein counter ELISA using the dual-tagged EphB2-His-Fc ectodomain protein was also run. […] For simplicity, we call this compound A20.

[4] = system: EphB2 tyrosine kinase, Cos1 cells; experiment: EphB2 kinase activation by pre-clustered EB2-Fc in Cos1 cells, immunoblot; type: cell-based; conditions: 30 min, listed as A20
Description: To assess if A20 would reduce the ability of EphrinB2 to stimulate activation of the EphB tyrosine kinase domain in live cells, Cos1 cells that express endogenous EphB2 were exposed to pre-clustered EB2-Fc ectodomains in the presence or absence of A20 for 30 min. […] Stimulated cells were fixed on the coverslip and subjected to immunofluorescence (IF) with anti-Fc antibodies to detect ligand protein bound to receptor, which leads to formation of circular Eph-Ephrin tetramers that then cluster into large obvious spots on the cell surface by lateral migration through the plasma membrane and also contain anti-phosphotyrosine signal indicating activation of the receptor's kinase domain.

[5] = target: pre-formed EphrinB2-EphB2 tetramer (Homo sapiens, UniProt P29323); experiment: Octet competition of pre-existing tetramers, human EphrinB2-EphB2; type: binding; conditions: 2, 10, 50 μM
Chain of pre-formed EphrinB2-EphB2 tetramer (P29323 19-543 limits assumed): as the sequence (P54763 19-543 limits assumed) above, with L104S, N154S, K520Q counted along it
Description: as §1

EphB2-His-Fc / EB2-His = target: T1, EphB2-His-Fc / EB2-His (Mus musculus, UniProt P54763); experiment: pulldown EB2-His to EphB2-His-Fc; type: binding
T1 construct: a dual-tagged EphB2-His-Fc ectodomain protein; mouse EB2-His residues 18-232; purchased R&D Systems (EphB-Fc); Sino Biologicals (EphrinB-His)
T1 sequence (P54763 19-543 limits assumed): as the sequence (P54763 19-543 limits assumed) above

[6] = multi-day IP dosing tolerability; type: in vivo, mouse; conditions: multi-day dosing every 12 hr, up to 40 mg/kg

| SMILES | ratio of Tom+ DH neurons [1] | competition of pre-formed tetramers [2] | diarrhea and ptosis [3] | jumps [3] | tremor reduction [3] [%] | counter ELISA signal (EphB2-His-Fc) | EphB2 kinase activity [4] | competition of pre-formed tetramers [5] | pulldown EphB2 binding to EB2-His (EphB2-His-Fc / EB2-His) | IC50 (EphB2-His-Fc / EB2-His; pulldown, EphB2) [µM] | tolerability [6] |
| --- | --- | --- | --- | --- | --- | --- | --- | --- | --- | --- | --- |
| Oc1c(Br)cc(CN2CCN(c3ccc(Br)cc3)CC2)c2cccnc12 [Compound 28, 7-bromo-5-((4-(4-bromophenyl)piperazin-1-yl)methyl)quinolin-8-ol] | significantly lower ratio of Tom+ neurons compared to the vehicle treated animals |  |  |  |  |  |  |  |  |  |  |
| COc1ccccc1N1CCN(Cc2cc(I)c(O)c3ncccc23)CC1 [Compound 71, 7-iodo-5-((4-(2-methoxyphenyl)piperazin-1-yl)methyl)quinolin-8-ol] | significantly lower ratio of Tom+ neurons compared to the vehicle treated animals |  |  |  |  |  |  |  |  |  |  |
| Oc1c(Br)cc(CN2CCOCC2)c2cccnc12 [Compound 5, 7-bromo-5-(morpholinomethyl)quinolin-8-ol] |  | able to compete away in a dose-dependent manner a significant amount of the stable pre-formed tetramer complexes | did not show signs of diarrhea or ptosis | significantly fewer jumps | 50 | had no effect on signal in the single-protein ELISA | caused a dose-dependent reduction in EphB2 kinase activity; also recorded: antagonizes EB2 stimulation of EphB2 catalytic activity | able to compete away in a dose-dependent manner a significant amount of the stable pre-formed tetramer complexes | strong dose-dependent ability to antagonize EphB2-His-Fc protein binding to EB2-His | ~10 | well tolerated |
